PubChem BioAssay (NCI)
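Five compound concentrations were applied to cells in 96-well plates for 48 hours; endpoints were derived by simple linear interpolation of the resulting dose-response curve. The concentration for full growth arrest is given as TGI.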

Experiments:
Experiment in all cases: NCI tumour cell line growth inhibition, 48 h
SK-MEL-5 melanoma = test system: SK-MEL-5 melanoma
HOP-18 NSCLC = test system: HOP-18 NSCLC
KM12 colon = test system: KM12 colon
HCC-2998 colon = test system: HCC-2998 colon
SF-295 CNS = test system: SF-295 CNS
786-0 renal = test system: 786-0 renal
SNB-78 CNS = test system: SNB-78 CNS
SNB-75 CNS = test system: SNB-75 CNS
OVCAR-4 ovarian = test system: OVCAR-4 ovarian
IGROV1 ovarian = test system: IGROV1 ovarian
MALME-3M melanoma = test system: MALME-3M melanoma
COLO 205 colon = test system: COLO 205 colon
MDA-MB-435 = test system: MDA-MB-435
CCRF-CEM leukemia = test system: CCRF-CEM leukemia
A498 renal = test system: A498 renal
SK-OV-3 ovarian = test system: SK-OV-3 ovarian
UACC-62 melanoma = test system: UACC-62 melanoma
NCI-H226 lung = test system: NCI-H226 lung
M19-MEL melanoma = test system: M19-MEL melanoma
HS 578T breast = test system: HS 578T breast
HOP-62 NSCLC = test system: HOP-62 NSCLC
XF 498 CNS = test system: XF 498 CNS
MDA-N = test system: MDA-N
EKVX NSCLC = test system: EKVX NSCLC
DMS 114 small cell lung = test system: DMS 114 small cell lung
DLD-1 colon = test system: DLD-1 colon
HCT-116 colon = test system: HCT-116 colon
KM20L2 colon = test system: KM20L2 colon
SNB-19 CNS = test system: SNB-19 CNS
HL-60(TB) leukemia = test system: HL-60(TB) leukemia
SK-MEL-2 melanoma = test system: SK-MEL-2 melanoma
HOP-92 NSCLC = test system: HOP-92 NSCLC
HT29 colon = test system: HT29 colon
ACHN renal = test system: ACHN renal
HCT-15 colon = test system: HCT-15 colon
TK-10 renal = test system: TK-10 renal
SK-MEL-28 melanoma = test system: SK-MEL-28 melanoma
DMS 273 small cell lung = test system: DMS 273 small cell lung
DU-145 prostate = test system: DU-145 prostate
SN12C renal = test system: SN12C renal
BT-549 breast = test system: BT-549 breast
MCF7 breast = test system: MCF7 breast
UO-31 renal = test system: UO-31 renal
NCI-H23 lung = test system: NCI-H23 lung
NCI-H522 lung = test system: NCI-H522 lung
LOX IMVI melanoma = test system: LOX IMVI melanoma
PC-3 prostate = test system: PC-3 prostate
RXF 393 renal = test system: RXF 393 renal
CAKI-1 renal = test system: CAKI-1 renal
SW-620 colon = test system: SW-620 colon
LXFL 529 NSCLC = test system: LXFL 529 NSCLC
NCI/ADR-RES ovarian = test system: NCI/ADR-RES ovarian
MDA-MB-231 breast = test system: MDA-MB-231 breast
OVCAR-5 ovarian = test system: OVCAR-5 ovarian
NCI-H460 lung = test system: NCI-H460 lung
RXF-631 renal = test system: RXF-631 renal
UACC-257 melanoma = test system: UACC-257 melanoma
OVCAR-3 ovarian = test system: OVCAR-3 ovarian
SF-539 CNS = test system: SF-539 CNS
A549 NSCLC = test system: A549 NSCLC
SF-268 CNS = test system: SF-268 CNS
M14 melanoma = test system: M14 melanoma
U251 CNS = test system: U251 CNS
OVCAR-8 ovarian = test system: OVCAR-8 ovarian
K-562 leukemia = test system: K-562 leukemia
RPMI-8226 leukemia = test system: RPMI-8226 leukemia
MOLT-4 leukemia = test system: MOLT-4 leukemia

CCCC(O)[C@@]1(CC)CC(C)C(O)(C2(C)C[C@H](C)[C@@H](C(CC)C(=O)C(C)[C@@H](O)[C@H](C)C3OC(O)(C(CC)C(=O)O)[C@@H](C)C(O)C3CC)O2)O1 (some centres not stated)
TGI (SK-MEL-5 melanoma): 1.18 µM | TGI (HOP-18 NSCLC): 23.9 µM | TGI (KM12 colon): 2.06 µM | TGI (HCC-2998 colon): 1.49 µM | TGI (SF-295 CNS): 4.91 µM | TGI (786-0 renal): 5.07 µM | TGI (SNB-78 CNS): 31.7 µM | TGI (SNB-75 CNS): 2.18 µM | TGI (OVCAR-4 ovarian): 6.94 µM | TGI (IGROV1 ovarian): 9.81 µM | TGI (MALME-3M melanoma): 0.392 µM | TGI (COLO 205 colon): 0.83 µM | TGI (MDA-MB-435): 1.2 µM | TGI (CCRF-CEM leukemia): 7.36 µM | TGI (A498 renal): 2.15 µM | TGI (SK-OV-3 ovarian): 6.54 µM | TGI (UACC-62 melanoma): 2.86 µM | TGI (NCI-H226 lung): 2.99 µM | TGI (M19-MEL melanoma): 2.17 µM | TGI (HS 578T breast): 2.99 µM | TGI (HOP-62 NSCLC): 2.3 µM | TGI (XF 498 CNS): 2.43 µM | TGI (MDA-N): 1.86 µM | TGI (EKVX NSCLC): 4.21 µM | TGI (DMS 114 small cell lung): 1.08 µM | TGI (DLD-1 colon): 8.86 µM | TGI (HCT-116 colon): 1.6 µM | TGI (KM20L2 colon): 4.13 µM | TGI (SNB-19 CNS): 3.15 µM | TGI (HL-60(TB) leukemia): 0.233 µM | TGI (SK-MEL-2 melanoma): 1.73 µM | TGI (HOP-92 NSCLC): 1.75 µM | TGI (HT29 colon): 2.09 µM | TGI (ACHN renal): 6.78 µM | TGI (HCT-15 colon): 7.03 µM | TGI (TK-10 renal): 6.74 µM | TGI (SK-MEL-28 melanoma): 1.69 µM | TGI (DMS 273 small cell lung): 5.93 µM | TGI (DU-145 prostate): 1.31 µM | TGI (SN12C renal): 2.39 µM | TGI (BT-549 breast): 1.41 µM | TGI (MCF7 breast): 2.17 µM | TGI (UO-31 renal): 3.18 µM | TGI (NCI-H23 lung): 2.28 µM | TGI (NCI-H522 lung): 0.537 µM | TGI (LOX IMVI melanoma): 1.57 µM | TGI (PC-3 prostate): 1.76 µM | TGI (RXF 393 renal): 1.61 µM | TGI (CAKI-1 renal): 5.05 µM | TGI (SW-620 colon): 2.9 µM | TGI (LXFL 529 NSCLC): 3.91 µM | TGI (NCI/ADR-RES ovarian): 1.82 µM | TGI (MDA-MB-231 breast): 2.11 µM | TGI (OVCAR-5 ovarian): 5.35 µM | TGI (NCI-H460 lung): 2.14 µM | TGI (RXF-631 renal): 1.93 µM | TGI (UACC-257 melanoma): 1.94 µM | TGI (OVCAR-3 ovarian): 2.62 µM | TGI (SF-539 CNS): 2.76 µM | TGI (A549 NSCLC): 5.71 µM | TGI (SF-268 CNS): 2.21 µM | TGI (M14 melanoma): 2.15 µM | TGI (U251 CNS): 1.82 µM | TGI (OVCAR-8 ovarian): 6.05 µM

CC1CCCP(=O)(c2ccccc2)CCC1 (configuration not stated)
TGI (SK-MEL-5 melanoma): > 100 µM | TGI (HOP-18 NSCLC): 96.4 µM | TGI (KM12 colon): > 100 µM | TGI (HCC-2998 colon): > 100 µM | TGI (K-562 leukemia): > 100 µM | TGI (SF-295 CNS): > 100 µM | TGI (786-0 renal): > 100 µM | TGI (SNB-78 CNS): > 100 µM | TGI (SNB-75 CNS): > 100 µM | TGI (OVCAR-4 ovarian): > 100 µM | TGI (IGROV1 ovarian): > 100 µM | TGI (MALME-3M melanoma): > 100 µM | TGI (COLO 205 colon): > 100 µM | TGI (CCRF-CEM leukemia): > 100 µM | TGI (A498 renal): > 100 µM | TGI (SK-OV-3 ovarian): > 100 µM | TGI (RPMI-8226 leukemia): > 100 µM | TGI (UACC-62 melanoma): > 100 µM | TGI (M19-MEL melanoma): > 100 µM | TGI (HOP-62 NSCLC): > 100 µM | TGI (XF 498 CNS): > 100 µM | TGI (EKVX NSCLC): > 100 µM | TGI (DMS 114 small cell lung): > 100 µM | TGI (DLD-1 colon): > 100 µM | TGI (KM20L2 colon): > 100 µM | TGI (SNB-19 CNS): > 100 µM | TGI (HL-60(TB) leukemia): > 100 µM | TGI (SK-MEL-2 melanoma): > 100 µM | TGI (HT29 colon): > 100 µM | TGI (ACHN renal): > 100 µM | TGI (HCT-15 colon): > 100 µM | TGI (TK-10 renal): > 100 µM | TGI (SK-MEL-28 melanoma): > 100 µM | TGI (DMS 273 small cell lung): > 100 µM | TGI (SN12C renal): > 100 µM | TGI (MOLT-4 leukemia): > 100 µM | TGI (UO-31 renal): > 100 µM | TGI (NCI-H23 lung): > 100 µM | TGI (LOX IMVI melanoma): > 100 µM | TGI (RXF 393 renal): > 100 µM | TGI (CAKI-1 renal): > 100 µM | TGI (SW-620 colon): > 100 µM | TGI (LXFL 529 NSCLC): > 100 µM | TGI (OVCAR-5 ovarian): > 100 µM | TGI (NCI-H460 lung): > 100 µM | TGI (RXF-631 renal): > 100 µM | TGI (UACC-257 melanoma): > 100 µM | TGI (OVCAR-3 ovarian): > 100 µM | TGI (SF-539 CNS): > 100 µM | TGI (A549 NSCLC): > 100 µM | TGI (SF-268 CNS): > 100 µM | TGI (M14 melanoma): > 100 µM | TGI (U251 CNS): > 100 µM | TGI (OVCAR-8 ovarian): > 100 µM

O=C(O)C1CCC(=O)N1C(=O)COc1cc(Cl)c(Cl)cc1Cl (configuration not stated)
TGI (SK-MEL-5 melanoma): > 100 µM | TGI (KM12 colon): > 100 µM | TGI (SF-295 CNS): > 100 µM | TGI (SNB-78 CNS): > 100 µM | TGI (SNB-75 CNS): > 100 µM | TGI (OVCAR-4 ovarian): > 100 µM | TGI (IGROV1 ovarian): > 100 µM | TGI (COLO 205 colon): > 100 µM | TGI (A498 renal): > 100 µM | TGI (SK-OV-3 ovarian): > 100 µM | TGI (UACC-62 melanoma): > 100 µM | TGI (NCI-H226 lung): > 100 µM | TGI (M19-MEL melanoma): > 100 µM | TGI (XF 498 CNS): > 100 µM | TGI (EKVX NSCLC): > 100 µM | TGI (DMS 114 small cell lung): > 100 µM | TGI (HCT-116 colon): > 100 µM | TGI (KM20L2 colon): > 100 µM | TGI (SNB-19 CNS): > 100 µM | TGI (HOP-92 NSCLC): > 100 µM | TGI (HT29 colon): > 100 µM | TGI (ACHN renal): > 100 µM | TGI (HCT-15 colon): > 100 µM | TGI (TK-10 renal): > 100 µM | TGI (SK-MEL-28 melanoma): > 100 µM | TGI (DMS 273 small cell lung): > 100 µM | TGI (SN12C renal): > 100 µM | TGI (UO-31 renal): > 100 µM | TGI (NCI-H23 lung): > 100 µM | TGI (NCI-H522 lung): > 100 µM | TGI (LOX IMVI melanoma): > 100 µM | TGI (CAKI-1 renal): > 100 µM | TGI (SW-620 colon): > 100 µM | TGI (LXFL 529 NSCLC): > 100 µM | TGI (OVCAR-5 ovarian): > 100 µM | TGI (NCI-H460 lung): > 100 µM | TGI (RXF-631 renal): > 100 µM | TGI (UACC-257 melanoma): > 100 µM | TGI (OVCAR-3 ovarian): > 100 µM | TGI (A549 NSCLC): > 100 µM | TGI (SF-268 CNS): > 100 µM | TGI (M14 melanoma): > 100 µM | TGI (U251 CNS): > 100 µM | TGI (OVCAR-8 ovarian): > 100 µM
